The values that follow come from ChEMBL document CHEMBL1201862, “PubChem BioAssay data set” (2004).

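In this assay, cells in 96-well plates receive the compound at five concentrations for 48 hours. Endpoints are linearly interpolated between the surrounding concentrations. GI50 is the concentration that inhibits growth by half.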 Active and inactive are the calls of the source. No stated cut-off is given here; in the data, active = GI50 up to about 1.1 µM and inactive = higher.

What all share (test): DTP human tumour cell line panel, 48 h
In experiment [1] the test system is LXFL 529.
The test system of experiment [2] is RXF 631.
For experiment [3], the system named is PC-3.
Experiment [4] has as its system T47D.
The test system of experiment [5] is BT-549.
The subject of experiment [6] is MDA-MB-435.
Experiment [7] relates to DU-145.
The test system of experiment [8] is MDA-N.
Experiment [9] has as its system 786-0.

The term GI50 denotes the concentration at which growth is held to half of that of the control. Regarding `CCOC(=O)NC(=O)c1cn(CCNCCO)c(=O)[nH]c1=O`, the GI50 in experiment [1] was > 100 µM (inactive).
`NC(S)=Nc1cc(Cl)ccc1Cl`: the GI50 in experiment [2] and in [1] was > 100 µM (inactive) in each case.
Regarding `Cc1ccc(C(=O)C2CC3(CCC2(O)c2ccc(C)cc2)CC(=O)Nc2ccccc2C3=O)cc1` (stereo not given), the GI50 in experiment [3] was 7.05 µM (inactive); in experiment [4], 8.57 µM (inactive); in experiment [5] it was > 100 µM (inactive); in experiment [6], > 100 µM (inactive); in experiment [7], > 100 µM (inactive); in experiment [8] it was > 100 µM (inactive).
For `COc1nc(-c2cn(S(=O)(=O)c3ccc(C)cc3)c3ccc(Br)cc23)cc(C(F)(F)F)c1C#N`, the GI50 was 47.4 µM (inactive) in experiment [3]; 19.5 µM (inactive) in [4]; 24.5 µM (inactive) in [5]; 81.1 µM (inactive) in experiment [6]; 16.5 µM (inactive) in experiment [7]; > 100 µM (inactive) in experiment [8].
Regarding `CC1CN=C(Nc2cccc(C(F)(F)F)c2)S1` (stereo not given), the GI50 is 54 µM (inactive) in experiment [4]; 80 µM (inactive) in experiment [5]; 53.1 µM (inactive) in [6]; 70.8 µM (inactive) in experiment [7]; 40.6 µM (inactive) in experiment [8].
On to `CC(=O)Nc1ccc(C(=O)NN2C(=O)C(Cl)C2/C=C/c2ccccc2)cc1` (stereo not given), for which the GI50 in experiment [1] is > 100 µM (inactive).
On to `Nc1nc(=O)n(CC(O)CO)s1` (stereo not given), for which the GI50 in experiment [2] and in experiment [1] was > 100 µM (inactive) throughout.
With `CC(C)(C)[Si](OC1CC(n2cnc3c(N)ncnc32)OC1CO)(c1ccccc1)c1ccccc1` (stereo not given), in experiment [1], the GI50 is 34.6 µM (inactive).
`COc1ccc(N2C(=O)CSC2c2c[nH]c3ccccc23)cc1` (stereo not given): the GI50 in experiment [3] is 24.7 µM (inactive); in [4] it was > 100 µM (inactive); in [5], 85.1 µM (inactive); in experiment [6], 41.5 µM (inactive); in experiment [7] it was 51.8 µM (inactive); in experiment [8], 35.2 µM (inactive).
For `S=C(N/N=C(/c1ccccc1)c1ccccn1)Nc1cccc(Cl)c1`, the GI50 in experiment [4] was 0.00369 µM (active); in [5] it was 1.05 µM (active); in experiment [6] it was 0.802 µM (active); in [7], 1.15 µM (inactive); in [8], 0.557 µM (active).
Consider `Nc1ncnc2c1sc1nc3ccccc3n12`, for which the GI50 in experiment [3] was > 100 µM (inactive); in experiment [4], > 100 µM (inactive); in [5], 80 µM (inactive); in [6], > 100 µM (inactive); in experiment [7], > 100 µM (inactive).
As to `Cc1[nH]c(=O)nc(S)c1C(=O)NC1C2CCCCC2NC2CCCCC21` (stereo not given), the GI50 was 13.2 µM (inactive) in experiment [3]; 7.59 µM (inactive) in experiment [4]; 16.4 µM (inactive) in [5]; 6.93 µM (inactive) in [6]; 11.8 µM (inactive) in experiment [7]; 11.5 µM (inactive) in experiment [8].
For the molecule `CCOC(=O)[C@H]1Nc2c(cccc2[N+](=O)[O-])[C@H]2OCC[C@@H]12`, the GI50 in experiment [2] and in experiment [1] was > 100 µM (inactive) in each case.
`Cn1c(=O)[nH]c2c(c1=O)C(=O)CN2`: the GI50 in experiment [1] is > 100 µM (inactive).
As for `Cc1cnc(SCCN2CCN(C)CC2)nc1-c1cc2ccccc2s1`, the GI50 in [1] is 13.8 µM (inactive); in experiment [9], 12 µM (inactive).
In the case of `O=C(N/N=C\C(F)(F)F)c1ccncc1`, the GI50 in experiment [3] was 26.9 µM (inactive); in experiment [5], > 100 µM (inactive); in experiment [6], 9.59 µM (inactive); in [7], 8.57 µM (inactive).
